For data set [1], the system named is Tracheal chains of guinea pig. The data set can be described thus: In vitro bronchodilator activity, isolated tracheal chain (ITC). The class given is cell-based. The settings on record: Cavia porcellus, relaxation 50% of the maximum response to 0.1 mcg./ml. of isoproterenol. The method, then: Tracheal chains of guinea pig were prepared by the method described by A. Akcasu in Arch. Int. Pharmacodyn. Ther., 122, 201 (1959). The response to each test compound was recorded by the Magnus method and expressed as a percentage of the maximum response obtained with 0.1 mcg./ml. of isoproterenol prior to each experiment.

In data set [2] the test system is Arterial blood pressure (ABP). The data set can be described thus: In vivo hypotensive activity, arterial blood pressure (ABP). Particulars: arterial blood pressure lowering, ED20, reduces ABP by 20%. Details: species or system guinea pig. On the procedure:
Pharmac., 21, 379 (1969). The trachea of anesthetized guinea pig was cannulated and the ITP recorded on a polygraph under artificial ventilation. Arterial blood pressure (ABP; measure of hypotensive activity) was also measured during the experiment. Data was obtained for both intravenous and intraduodenal administration.

The subject of data set [3] is intratracheal pressure (ITP) of guinea pig. The data set can be described thus: In vivo bronchodilator activity, intratracheal pressure test (ITP). Particulars: Cavia porcellus, 50% decrease in intratracheal pressure. The method, then:
The trachea of anesthetized guinea pig was cannulated and the ITP recorded on a polygraph under artificial ventilation. Arterial blood pressure (ABP; measure of hypotensive activity) was also measured during the experiment. Data was obtained for both intravenous and intraduodenal administration.

A short description of data set [4]: Separation of bronchodilator and cardiovascular effects (ABP/ITP). Particulars: guinea pig, in vivo, ratio of hypotensive ED20 / bronchodilating ED50. On the procedure:
To assess the separation of desirable bronchodilator activity from undesirable cardiovascular (hypotensive) effect in the test compounds, the ratio of hypotensive ED20 /bronchodilating ED50 was calculated and indicated in Table 1.

A further data set concerns bronchial constriction. Particulars: prior art; bronchial asthma; cited from earlier work.
For data set [5] the following is noted: known disadvantages, prior art; cited from earlier work.
For data set [6] the following is noted: prior art; cited from earlier work.
The next data set relates to platelet aggregation. Particulars: Chem Pharm. Bull., 25(7), 1811-1821 (1977); cited from earlier work.

This is an account of results in patent publication US4172829A, “2,9-Disubstituted adenine derivatives and their use as non-adrenergic bronchodilators” (Bristol-Myers Company, priority 1978, dated 1979).

Converted amounts (≈) assume the structure as drawn.

For the compound `CCCCCCOc1nc(N)c2ncn(C3CCCCC3)c2n1` [n-C6 H13 O / drawing 30, 2-n-Hexyloxy-9-cyclohexyl-9H-adenine], the response in data set [1] was half-maximal at 1.4 µg/mL (≈ 4.41 µM) (EC50). Besides, in data set [2] (intravenous), the ED20 was greater than 3 mg/kg. Moreover, in data set [3] (intravenous), the ED50 (as a rule, the dose at which the effect has come halfway, by size or by number of responders) was greater than 3 mg/kg.

On to `CCCCOc1nc(N)c2ncn(C3CCCCC3)c2n1` [n-C4 H9 O / drawing 30, 2-n-Butoxy-9-cyclohexyl-9H-adenine], for which a half-maximal effect in data set [1] (EC50) was put at 0.025 µg/mL (≈ 0.0864 µM). Also, the values for the selectivity ratio in data set [4] (intraduodenal) and in data set [4] (intravenous) were 5.9 and 1470, respectively. In addition, the ED20 in data set [2] (intraduodenal) is 8.3 mg/kg; in data set [2] (intravenous) it was 4.4 mg/kg. Besides, the ED50 was 1.4 mg/kg in data set [3] (intraduodenal) and 0.003 mg/kg in data set [3] (intravenous).

Consider `CC(C)COc1nc(N)c2ncn(C3CCCCC3)c2n1` [isO-C4 H9 O / drawing 30, 2-Isobutoxy-9-cyclohexyl-9H-adenine], for which a half-maximal response in data set [1] (EC50) required 0.31 µg/mL (≈ 1.07 µM). For the same compound, the ED20 in data set [2] (intravenous) is greater than 3 mg/kg. In data set [3] (intravenous), this compound showed an ED50 greater than 3 mg/kg.

In the case of `CCCCCOc1nc(N)c2ncn(C3C=CCCC3)c2n1` (stereo not shown) [n-C5 H11 O / drawing 31, 9-(2-Cyclohexenyl)-2-n-pentyloxy-9H-adenine], in data set [1], the EC50 (usually the concentration at which the effect is half-maximal) worked out at 0.59 µg/mL (≈ 1.96 µM). For the same compound, the ED20 in data set [2] (intravenous) is greater than 3 mg/kg. This compound yielded an ED50 in data set [3] (intravenous) greater than 3 mg/kg.

Turning to `Nc1nc(Cl)nc2c1ncn2C1C=CCCC1` (stereo not shown) [Cl / drawing 31, 2-Chloro-9-(2-cyclohexenyl)-9H-adenine], a half-maximal effect in data set [1] (EC50) was put at 0.12 µg/mL (≈ 0.481 µM). In addition, the selectivity ratio in data set [4] (intravenous) came out at 17. Also, in data set [2] (intravenous), the ED20 came out at 2.5 mg/kg. In data set [3] (intravenous), this compound gave an ED50 of 0.15 mg/kg.

In data set [1], `CCCOc1nc(N)c2ncn(C3C=CCCC3)c2n1` (stereo not shown) [n-C3 H7 O / drawing 31, 9-(2-Cyclohexenyl)-2-n-propoxy-9H-adenine] gave an EC50 of 0.027 µg/mL (≈ 0.0988 µM). Also, the selectivity ratio in data set [4] (intraduodenal) stood at 2; in data set [4] (intravenous) it was 5.9. For the same compound, the ED20 came out at 2.4 mg/kg in data set [2] (intraduodenal) and 2.0 mg/kg in data set [2] (intravenous). For the same compound, the results for the ED50 in data set [3] (intraduodenal) and in data set [3] (intravenous) were 1.2 mg/kg and 0.34 mg/kg, respectively.

Regarding `Cn1c(=O)c2[nH]cnc2n(C)c1=O` [Theophylline], the “bronchodilator activity (in words)” value with bronchial constriction is “potent and useful non-adrenergic bronchodilator”.

`Cn1c(=O)c2[nH]cnc2n(C)c1=O` [aminophylline]: the EC50 in data set [1] came out at 16.6 µg/mL (≈ 92.1 µM). In addition, in data set [5], the “side effects (in words)” value was “gastric irritation and cardiovascular and central nervous system side effects”. The “solubility (in words)” value in data set [6] was “readily soluble”. In the data set on bronchial constriction, the “bronchodilator activity (in words)” value is reported as “effective bronchodilator when given orally”.

In data set [1], `CC(C)COc1nc(N)c2ncn(C3C=CCCC3)c2n1` (stereo not shown) [iso-C4 H9 O / drawing 31, 9-(2-Cyclohexenyl)-2-isobutoxy-9H-adenine] registered an EC50 of 0.41 µg/mL (≈ 1.43 µM). In data set [2] (intravenous), this compound gave an ED20 of 2.4 mg/kg. For the same compound, the ED50 in data set [3] (intravenous) is greater than 3 mg/kg.

For the compound `CCCCCOc1nc(N)c2ncn(C3CCCCC3)c2n1` [n-C5 H11 O / drawing 30, 2-n-Pentyloxy-9-cyclohexyl-9H-adenine], in data set [1], the half-maximal effective concentration (EC50) is 1.8 µg/mL (≈ 5.93 µM). Besides, the ED20 in data set [2] (intravenous) was greater than 3 mg/kg. Moreover, the ED50 in data set [3] (intravenous) was greater than 3 mg/kg.

Regarding `Nc1nc(SC2CCCC2)nc2c1ncn2C1CCCC1`, in the data set with platelet aggregation, the “inhibition of platelet aggregation (in words)” value is “slightly effective”.

Take `CCOc1nc(N)c2ncn(C3C=CCCC3)c2n1` (stereo not shown) [C2 H5 O / drawing 31, 9-(2-Cyclohexenyl)-2-ethoxy-9H-adenine]: it took 0.088 µg/mL (≈ 0.339 µM) to reach a half-maximal effect in data set [1] (EC50). Besides, the results for the selectivity ratio in data set [4] (intraduodenal) and in data set [4] (intravenous) were 19 and 12, respectively. Besides, the results for the ED20 in data set [2] (intraduodenal) and in data set [2] (intravenous) were 12 mg/kg and 4.0 mg/kg, respectively. For the same compound, the values for the 50% effective dose (ED50) in data set [3] (intraduodenal) and in data set [3] (intravenous) were 0.62 mg/kg and 0.33 mg/kg, respectively.

Turning to `CCCCOc1nc(N)c2ncn(C3C=CCCC3)c2n1` (stereo not shown) [n-C4 H9 O / drawing 31, 9-(2-Cyclohexenyl)-2-n-butoxy-9H-adenine], a half-maximal response in data set [1] (EC50) required 0.045 µg/mL (≈ 0.157 µM). Besides, the selectivity ratio in data set [4] (intravenous) was greater than 4.8. In data set [2] (intravenous), this compound registered an ED20 greater than 3 mg/kg. In data set [3] (intravenous), this compound came in with an ED50 of 0.65 mg/kg.

In data set [1], `CCCOc1nc(N)c2ncn(C3CCCCC3)c2n1` [n-C3 H7 O / drawing 30, 9-Cyclohexyl-2-n-propoxy-9H-adenine] returned a concentration giving a half-maximal response (EC50) of 0.026 µg/mL (≈ 0.0944 µM). The selectivity ratio in data set [4] (intraduodenal) is 15; in data set [4] (intravenous), 12. In addition, the ED20 in data set [2] (intraduodenal) was 18 mg/kg; in data set [2] (intravenous), 4.4 mg/kg. Further, the ED50 was determined as 1.2 mg/kg in data set [3] (intraduodenal) and 0.37 mg/kg in data set [3] (intravenous).

Consider `CCOc1nc(N)c2ncn(C3CCCCC3)c2n1` [C2 H5 O / drawing 30, 2-Ethoxy-9-cyclohexyl-9H-adenine], for which the EC50 in data set [1] is 0.18 µg/mL (≈ 0.689 µM). Further, in data set [4] (intravenous), the selectivity ratio amounted to 6.8. In addition, the ED20 in data set [2] (intravenous) worked out at 2.5 mg/kg. Further, the ED50 in data set [3] (intravenous) was found to be 0.37 mg/kg.

`CCCCCCOc1nc(N)c2ncn(C3C=CCCC3)c2n1` (stereo not shown) [n-C6 H13 O / drawing 31, 9-(2-Cyclohexenyl)-2-n-hexyloxy-9H-adenine]: in data set [1], the EC50 is greater than 3 µg/mL. In data set [2] (intravenous), the ED20 amounted to 2.7 mg/kg. Further, the ED50 in data set [3] (intravenous) is greater than 3 mg/kg.
